Reference: patent US12178801B1, “Stable psilocin salts, esters and conjugates and uses thereof” (LOBE SCIENCES LTD., priority 2022, dated 2024)
Several values for one entry are separate records, joined by “and”; a condition that tells them apart may be missing. Equal entries are not always repeated. Entries after “also recorded” stand apart in the source; their conditions may differ.

Experiments:
[1] = Stability studies on psilocin mucate capsule (appearance, HPLC assay and impurities, TM-022-0392); type: physicochemical; settings: for Assay TM-22-0392 (% Label Claim): specification 90.0-110.0%
Method: Additional stability studies were performed on psilocin mucate (also known as psilocin mucic acid salt or conjugate or psilocin galactaric acid salt or conjugate) capsule.
Appearance was evaluated by viewing of the sample on a watchglass over a black and white background.
Assay conditions for Test/Method TM-022-0392 assessing stability and impurities were as follows: • Mobile phase: MPA: 945 mL water, 5 mL H3PO4 pH to 5.7 with NaOH; MPB: Acetonitrile • Diluent: 80:20 Water:MeOH • Standard: 0.4 mg/mL Psilocin Mucic RS in Diluent • Sample:0.4 mg/mL Psilocin Mucic AP in Diluent • HPLC Conditions are depicted in Table 3.
*Additional equilibration may be required System suit: RSD NMT 2.0% (5 injections), Tailing NMT 2.0, Plate count NLT 10000
Calculations were against a bracketing external standard.
Identity of psilocin mucate was verified by ultraviolet (UV) assessment, wherein the UV spectrum of the main peak in the standard matched the UV spectrum of the main peak in the sample and by retention time wherein the retention time ratio was 0.98-1.02.

healthy subjects = assay: Phase one single-dose study of psilocin mucic acid conjugate capsules: MMSE and mood assessment by psychiatrist; settings: single oral capsule 4.05 mg, equivalent to 2 mg psilocin
[2] = psilocin from psilocybin administration; cited from earlier work
[3] = psilocybin dose, equivalent to about 2 mg psilocin; cited from earlier work

## CN(C)CCc1c[nH]c2cccc(O)c12.O=C(O)[C@@H](O)[C@H](O)[C@H](O)[C@@H](O)C(=O)O [psilocin mucate]
[1]
  Time for which demonstrated to be stable: at least 7 months
[1]; capsule, 7 Months
  Appearance, Packaging: Labeled, amber glass bottle with white closure containing 15 partially filled white opaque capsules: Conforms
  Appearance, Product: White to light brown powder partially filling white opaque capsules: Conforms
  Total Impurities TM-22-0392: <0.05%
  Assay TM-22-0392 (% Label Claim): 101.7%
[1]; capsule, 7 Months, all impurities
  Impurities TM-22-0392, individual impurities: All <0.05%
[1]; capsule, Initial
  Appearance, Packaging: Labeled, amber glass bottle with white closure containing 15 partially filled white opaque capsules: Conforms
  Appearance, Product: White to light brown powder partially filling white opaque capsules: Conforms
  Total Impurities TM-22-0392: 0.08%
  Assay TM-22-0392 (% Label Claim): 100.8%
Healthy subjects; one statement per subject (01-10)
  FEELING STATUS: Less anxious, better mood, increase their appetite; also recorded: Feel little beet happier, better energy; also recorded: Feel calm, less thoughts, happier mood; also recorded: Euphoric, better mood, it helps with life stress; also recorded: Euphories, better mood, sleepy, feel time is slower; also recorded: Sleepy, better thoughts, less worried in general; also recorded: Did not feel change in mood but feeling cold; also recorded: More relaxed, want to drink sweet tea, better; also recorded: Better mood, feels hyper sexual; also recorded: Felt high mood, now they feel in good way, ,
Healthy subjects; one value per subject (01-10), scores expected below 25 with a hallucinogenic substance
  MMSE: 29 (2×) and 30 (3×) and 28 (3×) and 27 (2×)

## CN(C)CCc1c[nH]c2cccc(O)c12 [psilocin]
[2]
  Estimated dose-normalized bioavailability: 52.7%

## CN(C)CCc1c[nH]c2cccc(OP(=O)(O)O)c12 [psilocybin, Psilocybin]
[3]
  Lowest dose with reported hallucinogenic effects coupled with increased anxiety: 5 mg
